Reference: ChEMBL document CHEMBL1153321, “Approaches to the simultaneous inactivation of metallo- and serine-beta-lactamases” (Bioorg Med Chem Lett, 2009)

Legend:
[1] = Inhibition of recombinant GIM-1
[2] = Inhibition of recombinant VIM-2

CC(=O)OCC1=C(C(=O)O)N2C(=O)[C@@H](NO)[C@H]2SC1
IC50 [1]: 2 µM
IC50 [2]: 9 µM

CC(=O)OCC1=C(C(=O)O)N2C(=O)/C(=N/O)[C@H]2SC1
IC50 [1]: 15 µM
IC50 [2]: 10 µM

CC(=O)OCC1=C(C(=O)O)N2C(=O)[C@@H](N(O)C(=O)Cc3ccccc3)[C@H]2SC1
IC50 [1]: 0.3 µM
IC50 [2]: 2 µM

CC(=O)OCC1=C(C(=O)O)N2C(=O)/C(=N/O)[C@H]2S(=O)(=O)C1
IC50 [1]: 170 µM
IC50 [2]: 270 µM

CC(=O)OCC1=C(C(=O)O)N2C(=O)[C@@H](N(O)C=O)[C@H]2SC1
IC50 [1]: 0.3 µM
IC50 [2]: 10 µM

CC1=C(C(=O)O)N2C(=O)/C(=N/O)[C@H]2S(=O)(=O)C1
IC50 [1]: > 500 µM
IC50 [2]: 25 µM

CC(=O)OCC1=C(C(=O)O)N2C(=O)[C@@H](NC=O)[C@H]2SC1
IC50 [1]: 47 µM
IC50 [2]: 35 µM
